Consider nine compounds from patent US20260297065A1, “AROMATIC SUBSTITUENT-CONTAINING (HETERO) ARYL-IMIDAZOLE COMPOUND, AND PREPARATION METHOD THEREFOR AND USE THEREOF” (OPEN SOURCE THERAPEUTICS, priority 2022, published 2026).

What is called IC50 is the point on the concentration scale where inhibition reaches its midpoint. A higher IC50 goes with weaker potency in that assay. A word on the bioavailability: it is the share of a dose that reaches the circulation, judged against a reference dose that is usually intravenous.

Series [1] addresses T1, soluble epoxide hydrolase (sEH) (Homo sapiens, UniProt P34913).
T1 sequence (P34913 1-555): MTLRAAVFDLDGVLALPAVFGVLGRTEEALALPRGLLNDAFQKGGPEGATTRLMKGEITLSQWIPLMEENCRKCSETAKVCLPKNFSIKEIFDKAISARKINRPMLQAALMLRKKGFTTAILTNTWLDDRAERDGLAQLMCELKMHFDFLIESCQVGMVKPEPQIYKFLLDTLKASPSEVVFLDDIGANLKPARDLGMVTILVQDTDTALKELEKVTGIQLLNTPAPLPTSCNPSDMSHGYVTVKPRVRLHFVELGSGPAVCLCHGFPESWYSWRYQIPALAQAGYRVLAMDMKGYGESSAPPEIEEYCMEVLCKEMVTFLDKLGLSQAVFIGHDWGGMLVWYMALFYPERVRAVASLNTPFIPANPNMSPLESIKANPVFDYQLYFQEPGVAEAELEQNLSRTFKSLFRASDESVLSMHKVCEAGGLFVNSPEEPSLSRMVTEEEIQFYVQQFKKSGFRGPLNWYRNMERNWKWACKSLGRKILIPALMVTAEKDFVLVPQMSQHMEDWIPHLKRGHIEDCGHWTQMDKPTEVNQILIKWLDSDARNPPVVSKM
Put plainly: in vitro biochemical activity test, sEH enzyme inhibition with EET substrate (LC-MS). The following applies: 90 min pre-incubation at room temperature, 60 min reaction.

Series [2] addresses T1, soluble epoxide hydrolase (sEH). Put plainly: PHOME assay activity test, sEH enzyme inhibition (fluorescence). The series is classed as biochemical. The following applies: PHOME 5 μM, pH 7.0; 10 min pre-incubation; test compound concentration range 20 nM-0.082 nM. On the procedure: This example relates to the relationship between the structure and activity of (hetero)aryl imidazole compounds containing an aromatic substituent. Specifically, the biochemical activity of the (hetero)aryl imidazole compounds containing an aromatic substituent described herein as sEH enzyme inhibitors was evaluated by PHOME assay activity test experiment. The synthesis of the substrates and the test methods required for this test were all based on known literature reports (Analytical Biochemistry 2005, 343, 66-75).
The sEH enzyme activity inhibition experiment was performed in a low binding 96-well plate. The reaction system was 100 μL 25 mM Bis-Tris, pH 7.0, 0.1 mg/mL BSA buffer. The experimental steps of PHOME assay activity test were as follows.
First, a sEH enzyme solution with a final concentration of […] was mixed with compounds of different concentrations (test compound concentration range 20 nM-0.082 nM), and then pre-incubated on a shaker at room temperature for 10 min. The reaction was triggered by adding Phome fluorescent substrate at a final concentration of 5 μM and immediately placed in a Perkin Elmer microplate reader for dynamic monitoring for 1 hour at an excitation wavelength of 330 nm and an emission wavelength of 465 nm, with fluorescence readings at intervals of 1 minute. Graphpad Prism 9.0 software was used to calculate the slope of the fluorescence value increase in each well within 20 minutes, and the slope was used to calibrate the enzyme activity to calculate the inhibition rate of the compound on sEH enzyme activity under different concentration conditions. Finally, Graphpad Prism 9 was used to plot and calculate IC50 values.
The inhibitory activity IC50 values of some compounds against soluble epoxide hydrolase obtained by PHOME assay activity evaluation experiment are shown in Table 4.

Series [3] can be described thus: in vivo pharmacokinetics in male ICR mice, IV and PO. More on the design: species or system mouse (male ICR mice). The following applies: for clearance / half-life / AUC: mouse plasma; for clearance: read-out: intravenous injection administration (IV) C1; for AUC: read-out: Oral administration by gavage (PO) AUC; for bioavailability: plasma, mouse, PO 2 mpk, IV 1 mpk. From the text:
This example relates to the evaluation of the pharmacokinetic properties of (hetero)aryl imidazole compounds containing an aromatic substituent. Specifically, this experiment evaluated the in vivo pharmacokinetic properties of some of the (hetero)aryl imidazole compounds with an aromatic substituent synthesized in Example 1 in mice under intravenous (IV) and oral (PO) administration.
The animals used in this experiment were male ICR mice, which were obtained from Beijing Weitonglihua Experimental Animal Technology Co., Ltd. IV/PO administration was performed with a single drug or a combination of drugs (Cassette, no more than five drugs), the solvent was 5% DMSO+10% Solutol+85% Saline, the compound concentration was 0.2 mg/mL, and the IV/PO administration volume was 5/10 mL/kg, respectively. The animals in the oral administration group were fasted overnight before administration and fed 4 hours after administration. After administration, blood was collected from the cheek at the set time of the experiment. About 50 μL was collected for each sample and anticoagulated with sodium heparin. After collection, the blood was placed on wet ice and centrifuged within 1 hour to separate the plasma (6000 rpm, 3 minutes, 2-8° C.). Plasma samples were stored at −80° C. before analysis. The plasma samples were diluted and analyzed by LC-MS/MS to determine the blood drug concentration data in the samples at different time points, and Phoenix WinNonlin 8.2.0 was used to calculate the pharmacokinetic parameters.

Setting [4] is: 1 mg/kg, IV, 1 mpk, read-out: intravenous injection administration (IV) T1/2 (converted).
Setting [5] is: 2 mg/kg, PO, 2 mpk, read-out: Oral administration by gavage (PO) T1/2 (converted).

Structures are written as SMILES. Read-outs that look alike come from different tables or passages of the source.

For `Nc1ncc(-c2cc3[nH]c(-c4cccc(C(F)(F)F)c4)nc3c(F)c2F)c(C(F)F)n1` [Compound 80, 5-(2-(3-(trifluoromethyl)phen-yl)-4,5-difluoro-1H-benzo[d]imidazol-6-yl)-4-(difluoro-methyl)pyrimidine-2-amine], the IC50 in series [1] is 0.45 nM; in series [2], 0.65 nM.
In series [1], `Cc1nc(N)ncc1-c1cc2nc(-c3ccc(C(F)(F)F)cc3)[nH]c2c(F)c1F` [Compound 8, 5-(4,5-difluoro-2-(4-(trifluoro-methyl)phenyl)-1H-benzo[d]imidazol-6-yl)-4-methylpyr-imidine-2-amine] had an IC50 of 0.065 nM. The clearance in series [3] (1 mg/kg, IV, 1 mpk) is 1.3 mL/min/kg. Moreover, the results for the half-life in series [3] (setting [4]) and in series [3] (setting [5]) were 5.9 h and 6.4 h, respectively. The AUC in series [3] (2 mg/kg, PO, 2 mpk) worked out at 19600 ng·h/mL. In series [3] (2 mg/kg), the bioavailability came to 76%.
In the case of `Nc1cc(Cl)c(-c2cc3[nH]c(-c4ccc(C(F)(F)F)cc4)nc3cc2F)cn1` [Compound 61, 2-(4-(trifluoromethyl)phenyl)-6-(6-amino-4-chloropyridin-3-yl)-5-fluoro-1H-benzo[d] imidazole], in series [3] (1 mg/kg, IV, 1 mpk), the clearance came out at 1 mL/min/kg. The half-life is 8.5 h in series [3] (setting [4]) and 10.2 h in series [3] (setting [5]). Further, the AUC in series [3] (2 mg/kg, PO, 2 mpk) amounted to 26100 ng·h/mL. Further, in series [3] (2 mg/kg), the bioavailability turned out to be 83%.
Compound `COCCNc1ncc(-c2cc3[nH]c(-c4ccc(C(F)(F)F)cc4)nc3c(F)c2F)c(C(F)F)n1` [Compound 88, 5-(2-(4-(trifluoromethyl)phen-yl)-4,5-difluoro-1H-benzo[d]imidazol-6-yl)-4-(difluoro-methyl)-N-(2-methoxyethyl)-pyrimidine-2-amine] returned an IC50 in series [2] of 0.65 nM.
In turn, `Nc1ncc(-c2cc3[nH]c(-c4ccc(OC(F)(F)F)c(F)c4)nc3c(F)c2F)c(C(F)F)n1` [Compound 90, 5-difluoro-1H-benzo[d]5-(2-(4-(trifluoromethoxy)-3-fluoro-phenyl)-4,5-difluoro-1H-benzo [d]imidazol-6-yl)-4-(difluoro-methyl)pyrimidine-2-amine] gave an IC50 in series [2] of 0.48 nM.
The same measure, in the same setting: under `Nc1ncc(-c2cc3[nH]c(-c4ccc(F)c(OC(F)(F)F)c4)nc3c(F)c2F)c(C(F)F)n1` [Compound 94, 5-(2-(3-(trifluoromethoxy)-4-fluorophenyl)-4,5-difluoro-1H-benzo[d]imidazol-6-yl)-4-(difluoromethyl)pyrimidine-2-amine] stands 2.54 nM.
In the case of `CC(=O)N1CCN(Cc2ncc(-c3cc4[nH]c(-c5ccc(C(F)(F)F)cc5)nc4c(F)c3F)c(C)n2)CC1` [Compound 98, 1-(4-((4-methyl-5-(2-(4-(trifluoromethyl)phenyl)-4,5-difluoro-1H-benzo[d]imid-azol-6-yl)pyrimidine-2-yl)-methyl)piperazin-1-yl)ethan-1-one], the IC50 in series [2] came out at 0.11 nM.
Regarding `Cc1nc(CN2CCOCC2)ncc1-c1cc2[nH]c(-c3ccc(C(F)(F)F)cc3)nc2c(F)c1F` [Compound 97, 4-((4-methyl-5-(2-(4-(trifluoro-methyl)phenyl)-4,5-difluoro-1H-benzo[d]imidazol-6-yl)-pyrimidine-2-yl)methyl)mor-pholine], the IC50 in series [2] amounted to 0.092 nM.
`Nc1ncc(-c2cc3[nH]c(-c4ccc(C(F)(F)F)cc4)nc3c(F)c2F)c(C(=O)O)n1` [Compound 99, 2-amino-5-(2-(4-(trifluoro-methyl)phenyl)-4,5-difluoro-1H-benzo[d]imidazol-6-yl)-pyrimidine-4-carboxylic acid] came in with an IC50 in series [2] of 41.6 nM.
